{
  "source": "patent US11286463B2",
  "about": "“Reprogramming of aged adult stem cells” (priority 2012, dated 2022)",
  "system": "84 genes reported to be linked to cellular aging, epigenetics and senescence",
  "assay": "qPCR gene array of AASC in transwell culture with YASC",
  "assay_type": "cell-based, human",
  "conditions": "5 μM manumycin",
  "method": "In an embodiment, the methods of the present disclosure further comprise exposure of AASCs to the Intracellular Matrix (ICM) of the YASCs through placement of a transwell culture insert containing YASC into the tissue culture dish chamber. Mobilized PBMCs (1×10^7) from the second subjects are added to the outer well of 12-well transwell cultures containing a […] BD Falcon™ insert. Any membrane insert able to provide a cell-free filtrate to cultures of AASCs may be employed. In parallel, mobilized PBMCs (1×10^7) from the first subjects are added to the inner well of the 12-well plate. Cells may then be cultivated in a suitable media (e.g., RPMI-1640 (Gibco) supplemented with 10% fetal calf serum (FCS) and β-mercaptoethanol (β-ME)) for a time period of the type disclosed herein (e.g., 8-weeks), under standard culture conditions (e.g., 50% media changed every 4 days).\nFor experiments investigating the contribution of exosomes as the membrane-permeable factors responsible for AASC reprogramming (i.e reprogramming agents), the exosomal inhibitor manumycin A (Sigma-Aldrich) can be added to the culture media at a final concentration of 5 μM at days 0 and 14 of the cultivation period.\nAASC reprogramming was carried out using the one-step process depicted in the middle workflow of FIGS. 1 and 2. […]",
  "data": [
    {"compound": "CCCC[C@@H](C)/C=C(C)/C=C(\\C)C(=O)NC1=C[C@@](O)(/C=C/C=C/C=C/C(=O)NC2=C(O)CCC2=O)[C@@H]2O[C@@H]2C1=O", "note": "[manumycin, -[(1S,5S,6R)-5-hydroxy-5-[(1E,3E,5E)-7-[(2-hydroxy-5-oxo-1-cyclopenten-1-yl)amino]-7-oxo-1,3,5-heptatrien-1-yl]-2-oxo-7-oxabicyclo[4.1.0]hept-3-en-3-yl]-2E,4E,6R-trimethyl,2,4-decadienamide]", "values": [
      {"measurement": "gene expression levels of AASC co-cultured with YASC compared to absence of manumycin", "value": "displayed changes in gene expression levels"}
    ]}
  ]
}
